Results as given in patent publication US10179771B2 (GALAPAGOS NV, priority 2014, dated 2019).

Target: T1, Recombinant human TYK2 catalytic domain (Homo sapiens, UniProt P29597)
T1 construct: Recombinant human TYK2 catalytic domain (amino acids 871-1187; catalog number 08-147); purchased Carna biosciences 08-147
T1 sequence (P29597 871-1187): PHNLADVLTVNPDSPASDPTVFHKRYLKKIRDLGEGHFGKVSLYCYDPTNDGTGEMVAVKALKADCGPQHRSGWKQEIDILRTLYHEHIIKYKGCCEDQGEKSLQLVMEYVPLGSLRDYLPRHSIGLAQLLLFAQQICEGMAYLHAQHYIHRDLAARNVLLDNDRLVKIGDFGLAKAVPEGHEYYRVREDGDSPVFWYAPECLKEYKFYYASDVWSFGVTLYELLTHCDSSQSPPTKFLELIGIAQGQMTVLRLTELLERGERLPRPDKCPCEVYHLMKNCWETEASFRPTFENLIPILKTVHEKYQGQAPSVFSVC
Assay: TYK2 inhibition assay
Type: biochemical
Settings: Comparative Compounds (Table XII)
Protocol: Recombinant human TYK2 catalytic domain (amino acids 871-1187; catalog number 08-147) was purchased from Carna biosciences. 5 ng of TYK2 was incubated with 12.5 μg polyGT substrate (Sigma catalog number P0275) in kinase reaction buffer (25 mM Hepes pH 7.2, 50 mM NaCl, 0.5 mM EDTA, 1 mM DTT, 5 mM MnCl2, 10 mM MgCl2, 0.1% Brij-35, 0.1 μM non-radioactive ATP, 0.125 μCi ^33P-gamma-ATP (GE Healthcare, catalog number AH9968) final concentrations) with or without 5 μL containing test compound or vehicle (DMSO, 1% final concentration), in a total volume of 25 μL, in a polypropylene 96-well plate (Greiner, V-bottom). After 90 min at 30° C., reactions were stopped by adding 25 μL/well of 150 mM phosphoric acid. All of the terminated kinase reaction was transferred to prewashed (75 mM phosphoric acid) 96 well filter plates (Perkin Elmer catalog number 6005177) using a cell harvester (Perkin Elmer). Plates were washed 6 times with 300 μL per well of a 75 mM phosphoric acid solution and the bottom of the plates was sealed. 40 μL/well of Microscint-20 was added, the top of the plates was sealed and readout was performed using the Topcount (Perkin Elmer). Kinase activity was calculated by subtracting counts per min (cpm) obtained in the presence of a positive control inhibitor (10 μM staurosporine) from cpm obtained in the presence of vehicle. The ability of a test compound to inhibit this activity was determined as: Percentage inhibition=((cpm determined for sample with test compound present−cpm determined for sample with positive control inhibitor) divided by (cpm determined in the presence of vehicle−cpm determined for sample with positive control inhibitor))*100.
Dose dilution series were prepared for the compounds enabling the testing of dose-response effects in the TYK2 assay and the calculation of the IC50 for each compound. Each compound was routinely tested at concentration of 20 μM followed by a 1/3 serial dilution, 8 points (20 μM-6.67 μM-2.22 μM-740 nM-247 nM-82 nM-27 nM-9 nM) in a final concentration of 1% DMSO. When potency of compound series increased, more dilutions were prepared and/or the top concentration was lowered (e.g. 5 μM, 1 μM).

| Structure (SMILES) | IC50 [nM] |
| --- | --- |
| CN(c1ccc2ncn(C)c2c1)c1ccc(C#N)cc1F [C, 3-fluoro-4-[methyl-(3-methylbenzimidazol-5-yl)amino]benzonitrile, reference compound] | > 500 |

Same assay, conditions: Illustrative Compounds of the invention (Table XI)

| Structure (SMILES) | IC50 [nM] |
| --- | --- |
| CNC(=O)Nc1cc(Oc2cnc(C#N)cc2C)cc2c1ncn2C | 0.1 to 50 |
| CCc1cc(C#N)cc(F)c1N(C)c1cc(NC(=O)[C@@H]2C[C@@H]2F)c2ncn(C)c2c1 (racemic) [Cpd 7, N-(6-((4-cyano-2-ethyl-6-fluorophenyl)(methyl)amino)-1-methyl-1H-benzo[d]imidazol-4-yl)-2-fluorocyclopropanecarboxamide (1S,2S)/(1R,2R) racemic mixture] | 0.1 to 50 |
| CCc1cc(C#N)ncc1N(C)c1cc(NC(=O)C2CC2)c2ncn(C)c2c1 [Cpd 1, N-(6-((6-cyano-4-ethylpyridin-3-yl)(methyl)amino)-1-methyl-1H-benzo[d]imidazol-4-yl)cyclopropanecarboxamide] | 0.1 to 50 |
| CCc1cc(C#N)cc(F)c1Nc1cc(NC(=O)C2CC2)c2ncn(C)c2c1 [Cpd 2, N-(6-(4-cyano-2-ethyl-6-fluorophenylamino)-1-methyl-1H-benzo[d]imidazol-4-yl)cyclopropanecarboxamide] | 0.1 to 50 |
| CCc1cc(C#N)cc(F)c1N(C)c1cc(NC(=O)C2CC2)c2ncn(C)c2c1 [Cpd 3, N-(6-((4-cyano-2-ethyl-6-fluorophenyl)(methyl)amino)-1-methyl-1H-benzo[d]imidazol-4-yl)cyclopropanecarboxamide] | 0.1 to 50 |
| CCc1cc(C#N)ncc1N(C)c1cc(NC(=O)OC)c2ncn(C)c2c1 [Cpd 4, methyl 6-((6-cyano-4-ethylpyridin-3-yl)(methyl)amino)-1-methyl-1H-benzo[d]imidazol-4-ylcarbamate] | 0.1 to 50 |
| CCc1cc(C#N)cc(F)c1N(C)c1cc(NC(=O)OC)c2ncn(C)c2c1 [Cpd 5, methyl 6-((4-cyano-2-ethyl-6-fluorophenyl)(methyl)amino)-1-methyl-1H-benzo[d]imidazol-4-ylcarbamate] | 0.1 to 50 |
| CCc1cc(C#N)ncc1Oc1cc(NC(=O)[C@H]2C[C@H]2F)c2ncn(C)c2c1 [Cpd 6, (1R,2R)-N-[6-[(6-cyano-4-ethyl-3-pyridyl)oxy]-1-methyl-benzimidazol-4-yl]-2-fluoro-cyclopropanecarboxamide] | 0.1 to 50 |
| CCc1cc(C#N)ncc1N(C)c1cc(NC(=O)[C@H]2C[C@H]2F)c2ncn(C)c2c1 [Cpd 8, (1R,2R)-N-(6-((6-cyano-4-ethylpyridin-3-yl)(methyl)amino)-1-methyl-1H-benzo[d]imidazol-4-yl)-2-fluorocyclopropanecarboxamide] | 0.1 to 50 |
| Cc1cc(C#N)ncc1N(C)c1cc(NC(=O)[C@H]2C[C@H]2F)c2ncn(C)c2c1 [Cpd 9, (1R,2R)-N-(6-((6-cyano-4-methylpyridin-3-yl)(methyl)amino)-1-methyl-1H-benzo[d]imidazol-4-yl)-2-fluorocyclopropanecarboxamide] | 0.1 to 50 |
| CCc1cc(C#N)ccc1Oc1cc(NC(=O)[C@H]2C[C@H]2F)c2ncn(C)c2c1 [Cpd 10, (1R,2R)-N-[6-(4-cyano-2-ethyl-phenoxy)-1-methyl-benzimidazol-4-yl]-2-fluoro-cyclopropanecarboxamide] | 0.1 to 50 |
| CN(c1cc(NC(=O)[C@H]2C[C@H]2F)c2ncn(C)c2c1)c1c(F)cc(C#N)cc1Cl [Cpd 11, (1R,2R)-N-[6-(2-chloro-4-cyano-6-fluoro-N-methyl-anilino)-1-methyl-benzimidazol-4-yl]-2-fluoro-cyclopropanecarboxamide] | 0.1 to 50 |
| Cc1cc(F)ncc1N(C)c1cc(NC(=O)[C@H]2C[C@H]2F)c2ncn(C)c2c1 [Cpd 12, (1R,2R)-2-fluoro-N-[6-[(6-fluoro-4-methyl-3-pyridyl)-methyl-amino]-1-methyl-benzimidazol-4-yl]cyclopropanecarboxamide] | 0.1 to 50 |
| CN(c1cc(NC(=O)[C@H]2C[C@H]2F)c2ncn(C)c2c1)c1ccc(F)nc1F [Cpd 13, (1R,2R)-N-[6-[(2,6-difluoro-3-pyridyl)-methyl-amino]-1-methyl-benzimidazol-4-yl]-2-fluoro-cyclopropanecarboxamide] | 0.1 to 50 |
